Reference: US8778931B2, “Substituted hydroxamic acids and uses thereof” (Millennium Pharmaceuticals, Inc., priority 2010, dated 2014)

How the values were obtained:
[1] = Intrinsic Clearance in Microsomes (rat); format: in vitro ADME; settings: liver microsomes, pH 7.4, 2 μM test compound, read-out: In Vitro Microsomal Intrinsic Clearance, Rat CL int (converted)
Description: (§1) The following reagents and stock solutions are required for determination of microsomal clearance.
(§2) • 1. 0.1 M potassium phosphate buffer, pH 7.4: • Stock A (1.0 M): 136.5 g of monobasic potassium phosphate (Sigma #P5379) in 1 L of nanopure water. • Stock B (1.0 M): 174.2 g of dibasic potassium phosphate (Sigma #P8281) in 1 L of nanopure water. • Mix 40.5 mL of stock B+9.5 mL of stock A, adjust pH with monobasic potassium phosphate, qs to 500 mL with nanopure water to give 0.1M potassium phosphate buffer, pH 7.4. • 2. […] NADPH: β-nicotinamide adenine dinucleotide phosphate, reduced form (Sigma #N1630) • 4. UDPGA: Uridine 5′-Diphosphote Glucuronic Acid, Triamnonium salt (Sigma #U-5625) • 5. Alamethicin (Sigma #A-4665-25) • 6. MgCl2: Magnesium chloride (Sigma #M8266) • 7. DMSO: Dimethyl sulfoxide (Sigma #D4540) • 8. 7EC: 7-Ethoxycoumarine (Sigma #E1379), positive control. • 9. Carbutamide (Aldrich cat #38157-8), internal standard. Stock Solutions: • 1. 10 mM stock solution of test compound in DMSO • 200 μM test solution of test compound: 10 μL of 10 mM test compound stock solution+490 μL of 75% ACN/water • 2. 10 mM stock solution of 7-Ethoxycoumarin in DMSO (positive control) • 200 μM test solution of 7-Ethoxycoumarine: 10 μL of 10 mM 7EC stock solution+490 μL of 75% ACN/water. • 3. 10 mM carbutamide stock (internal standard): Dissolve 2.71 mg of carbutimide in 1 mL DMSO. • 1 μM carbutamide solution: 100 μL of 10 mM stock solution in • 1 L of acetonitrile, store at 4° C. • 4. 3 mM MgCl2 in 0.1 M K-phosphate buffer: • Dissolve 28.5 mg of anhydrous MgCl2 in 100 mL of 0.1 M K-phosphate buffer, pH 7.4. • 5. 4× Stock Solution of Cofactors Mixture
(§3) 16 mM NADPH in 0.1 M K-phosphate buffer, pH 7.4 containing MgCl2.
(§4) 20 mM UDPGA in 0.1 M K-phosphate buffer, pH 7.4 containing MgCl2
(§5) Aliquot equal volume of stock solution of NADPH and UDPGA to make the final stock solution of cofactor mixture as follows:
(§6) 10 mM UDPGA • 6. Add 1.25 mL of methanol directly to the bottle of alamethicin. Invert 10 times to dissolve the alamethicin. This yields a 20 mg/ml solution of alamethicin. […]

[2] = Intrinsic Clearance in Microsomes (human); format: in vitro ADME; settings: liver microsomes, pH 7.4, 2 μM test compound, read-out: In Vitro Microsomal Intrinsic Clearance, Human CL int
Description: as §1, §2, §3, §4, §5, §6

purified human HDAC6 = biological target: T1, purified human HDAC6 (Homo sapiens, UniProt Q9UBN7); test: HDAC6 Enzyme Assay; format: biochemical; settings: HDAC6, 0.37 μM concentration; read-out: Percentage Inhibition (%)
T1 construct: purchased BPS Bioscience 5006
T1 sequence (Q9UBN7 1-1215): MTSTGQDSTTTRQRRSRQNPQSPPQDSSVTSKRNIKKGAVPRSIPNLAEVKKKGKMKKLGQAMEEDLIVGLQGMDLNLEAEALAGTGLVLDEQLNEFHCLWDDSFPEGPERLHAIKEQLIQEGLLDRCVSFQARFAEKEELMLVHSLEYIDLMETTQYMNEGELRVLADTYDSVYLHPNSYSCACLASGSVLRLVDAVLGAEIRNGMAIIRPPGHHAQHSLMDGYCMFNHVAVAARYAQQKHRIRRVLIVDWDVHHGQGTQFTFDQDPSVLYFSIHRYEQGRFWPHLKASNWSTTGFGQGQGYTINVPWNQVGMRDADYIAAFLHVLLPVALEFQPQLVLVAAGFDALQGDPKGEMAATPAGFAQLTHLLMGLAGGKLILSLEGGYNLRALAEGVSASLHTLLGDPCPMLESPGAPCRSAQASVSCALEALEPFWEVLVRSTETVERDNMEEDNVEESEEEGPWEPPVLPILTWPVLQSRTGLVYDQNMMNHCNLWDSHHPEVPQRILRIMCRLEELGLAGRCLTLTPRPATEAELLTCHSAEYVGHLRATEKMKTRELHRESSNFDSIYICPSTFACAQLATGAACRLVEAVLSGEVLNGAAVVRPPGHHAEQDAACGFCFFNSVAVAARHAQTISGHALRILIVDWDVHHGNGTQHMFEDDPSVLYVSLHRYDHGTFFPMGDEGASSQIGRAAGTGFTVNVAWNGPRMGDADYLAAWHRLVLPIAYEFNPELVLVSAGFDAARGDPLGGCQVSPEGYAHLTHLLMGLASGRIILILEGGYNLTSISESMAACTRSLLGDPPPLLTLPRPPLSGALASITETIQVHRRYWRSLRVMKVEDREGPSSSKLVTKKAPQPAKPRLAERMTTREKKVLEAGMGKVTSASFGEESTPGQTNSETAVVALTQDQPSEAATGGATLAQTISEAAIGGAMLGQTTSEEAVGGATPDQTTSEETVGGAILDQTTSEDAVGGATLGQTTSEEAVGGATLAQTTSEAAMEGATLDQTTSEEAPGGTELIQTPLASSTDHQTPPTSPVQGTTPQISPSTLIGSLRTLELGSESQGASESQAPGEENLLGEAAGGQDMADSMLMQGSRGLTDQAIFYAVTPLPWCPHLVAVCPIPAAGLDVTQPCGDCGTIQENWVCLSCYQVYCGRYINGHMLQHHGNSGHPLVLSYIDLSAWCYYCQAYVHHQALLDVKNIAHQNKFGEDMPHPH
Description: To measure the inhibition of HDAC6 activity, purified human HDAC6 (BPS Bioscience; Cat. No. 5006) is incubated with substrate Ac-Arg-Gly-Lys(Ac)-AMC peptide (Bachem Biosciences; Cat. No. I-1925) for 1 hour at 30° C. in the presence of test compounds or vehicle DMSO control. The reaction is stopped with the HDAC inhibitor trichostatin A (Sigma; Cat. No. T8552) and the amount of Arg-Gly-Lys-AMC generated is quantitated by digestion with trypsin (Sigma; Cat. No. T1426) and subsequent measurement of the amount of AMC released using a fluorescent plate reader (Pherastar; BMG Technologies) set at Ex 340 nm and Em 460 nm. Concentration response curves are generated by calculating the fluorescence increase in test compound-treated samples relative to DMSO-treated controls, and percentage inhibition values at a single concentration or enzyme inhibition (IC50) values are determined from those curves. One skilled in the art will appreciate that the values generated either as percentage inhibition at a single concentration or IC50 values are subject to experimental variation.

[3] = Intrinsic Clearance in Microsomes (dog); format: in vitro ADME; settings: liver microsomes, pH 7.4, 2 μM test compound, read-out: In Vitro Microsomal Intrinsic Clearance, Dog CL int (converted)
Description: as §1, §2, §3, §4, §5, §6

Work on `CC1(C(=O)N2CCc3cc(C(=O)NO)ccc3C2)CCNCC1` [Compound I-1, N-hydroxy-2-[(4-methylpiperidin-4-yl)carbonyl]-1,2,3,4-tetrahydroisoquinoline-6-carboxamide] yielded a CLint scaled at 2 µM [1] of under 14.2 mL/min/kg, a CLint scaled at 2 µM [2] of under 6.33 mL/min/kg and an inhibition at 0.37 µM (purified human HDAC6) of 79.7%. The CLint scaled at 2 µM [3] was under 7.83 mL/min/kg.

`CCN1CCC(C)(C(=O)N2CCc3cc(C(=O)NO)ccc3C2)CC1` [Compound I-2, 2-[(1-ethyl-4-methylpiperidin-4-yl)carbonyl]-N-hydroxy-1,2,3,4-tetrahydroisoquinoline-6-carboxamide] showed a CLint scaled at 2 µM [1] of under 14.2 mL/min/kg, a CLint scaled at 2 µM [2] of under 6.33 mL/min/kg and an inhibition at 0.37 µM (purified human HDAC6) of 78.3%. The CLint scaled at 2 µM [3] was under 7.83 mL/min/kg.

Molecule `O=C(NO)c1ccc2c(c1)CCN(Cc1ccc(C3CCNCC3)cc1)C2` [Compound I-3, N-hydroxy-2-(4-piperidin-4-ylbenzyl)-1,2,3,4-tetrahydroisoquinoline-6-carboxamide] has an inhibition at 0.37 µM (purified human HDAC6) of 80.7%.

With `CC1(C(=O)Nc2ccc(CN3CCc4cc(C(=O)NO)ccc4C3)cc2)CCNCC1` [Compound I-4, N-hydroxy-2-(4-{[(4-methylpiperidin-4-yl)carbonyl]amino}benzyl)-1,2,3,4-tetrahydroisoquinoline-6-carboxamide] the inhibition at 0.37 µM (purified human HDAC6) was 72.2%.

`CC(C)(C)OC(=O)N1CCC(c2ccc(CN3CCc4cc(C(=O)NO)ccc4C3)cc2)CC1` [Compound I-5, tert-butyl 4-(4-{[6-[(hydroxyamino)carbonyl]-3,4-dihydroisoquinolin-2(1H)-yl]methyl}phenyl)piperidine-1-carboxylate] gave an inhibition at 0.37 µM (purified human HDAC6) of 46.2%.

`CC(C)(C)OC(=O)N1CCC(C)(C(=O)Nc2ccc(CN3CCc4cc(C(=O)NO)ccc4C3)cc2)CC1` [Compound I-6, tert-butyl 4-{[(4-{[6-[(hydroxyamino)carbonyl]-3,4-dihydroisoquinolin-2(1H)-yl]methyl}phenyl)amino]carbonyl}-4-methylpiperidine-1-carboxylate] showed an inhibition at 0.37 µM (purified human HDAC6) of 61%.

Work on `CC(C)(C)OC(=O)N1CCC(C)(C(=O)N2CCc3cc(C(=O)NO)ccc3C2)CC1` [Compound I-13, tert-butyl 4-{[6-[(hydroxyamino)carbonyl]-3,4-dihydroisoquinolin-2(1H)-yl]carbonyl}-4-methylpiperidine-1-carboxylate] yielded a CLint scaled at 2 µM [1] of 46.7 mL/min/kg, a CLint scaled at 2 µM [2] of under 6.33 mL/min/kg and an inhibition at 0.37 µM (purified human HDAC6) of 88.8%. For the same molecule, the CLint scaled at 2 µM [3] was 31.7 mL/min/kg.
